The structures appear in SMILES notation. pIC50: −log10 of the molar value. Some results are limits rather than exact numbers.

Sequence of PAD4 (Q9UM07 whole entry): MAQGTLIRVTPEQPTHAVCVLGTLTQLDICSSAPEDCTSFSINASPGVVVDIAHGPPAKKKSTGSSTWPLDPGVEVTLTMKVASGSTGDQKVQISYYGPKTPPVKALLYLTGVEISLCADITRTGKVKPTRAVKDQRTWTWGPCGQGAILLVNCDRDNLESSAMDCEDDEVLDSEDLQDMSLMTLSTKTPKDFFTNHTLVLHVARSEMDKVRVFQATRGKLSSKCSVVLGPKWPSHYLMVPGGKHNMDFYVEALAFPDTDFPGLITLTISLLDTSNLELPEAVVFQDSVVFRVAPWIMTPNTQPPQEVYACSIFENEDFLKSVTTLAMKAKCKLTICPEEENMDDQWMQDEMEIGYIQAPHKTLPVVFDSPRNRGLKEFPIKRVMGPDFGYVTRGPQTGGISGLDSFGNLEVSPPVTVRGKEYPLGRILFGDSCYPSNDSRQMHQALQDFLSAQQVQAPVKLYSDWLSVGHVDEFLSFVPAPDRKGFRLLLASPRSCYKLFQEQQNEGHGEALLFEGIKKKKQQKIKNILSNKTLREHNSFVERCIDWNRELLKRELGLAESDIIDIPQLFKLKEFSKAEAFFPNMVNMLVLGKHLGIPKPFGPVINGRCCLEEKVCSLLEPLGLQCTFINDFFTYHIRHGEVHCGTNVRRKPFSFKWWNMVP

The target in this assay is PAD4 (Homo sapiens, UniProt Q9UM07). As to the kind of experiment: PAD4 Inhibition Assay (citrulline formation from BAEE). In kind it is biochemical. Particulars: PAD4 75 nM, 60-minute preincubation at 37° C., substrate BAEE, 90 minutes. On the procedure:
PAD4 was diluted to 75 nM in Assay Buffer (50 mM Tris-HCl, 2 mM CaCl2, 2 mM DTT, 1 mM PMSF in H2O) and added to wells with various concentrations of compound or DMSO vehicle in Eppendorf tubes (final volume was 100 μL). Following a 60-minute preincubation at 37° C., the reaction was initiated by the addition of 10 μL substrate (22 mM BAEE in H2O) at 37° C. The reaction was stopped after 90 minutes by the addition of 25 μL HClO4 (5 M), 125 μL Reagent A (10 g/L diacetyl monoxime and 15 g/L NaCl in H2O) and 250 μL Reagent B (10 mg/mL antipyrine and 1.5 mg/mL FeCl3 diluted in detection buffer containing 25% H2SO4, 25% H3PO4 and 50% H2O) in sequence. This assay was quenched in an ice-bath for 5 minutes after boiling for 30 minutes. The citrulline formation was measured in […] (λ=465 nm) on microplate reader and the IC50 was calculated by GraphPad Prism 5.
Take `COc1cc2c(OC)cccc2cc1C(=O)N[C@@H](CCCNC(=N)CF)C(=O)NCc1ccccc1` [EX-1, (S)-N-(1-(benzylamino)-5-(2-fluoroacetimidamido)-1-oxopentan-2-yl)-3,5-dimethoxy-2-naphthamide]: the pIC50 (as a rule, the negative decadic logarithm of the IC50, by convention in mol/L) is > 6.30.

Consider `COc1cc2ccccc2cc1C(=O)N[C@@H](CCCNC(=N)CF)C(=O)NCc1ccccc1` [EX-2, (S)-N-(1-(Benzylamino)-5-(2-fluoroacetimidamido)-1-oxopentan-2-yl)-3-methoxy-2-naphthamide], for which the negative-log IC50 (pIC50) was > 6.30.

Consider `COc1cccc(OC)c1C(=O)N[C@@H](CCCNC(=N)CF)C(=O)NCc1ccc(Cl)cc1` [EX-3, (S)-N-(1-((4-Chlorobenzyl)amino)-5-(2-fluoroacetimidamido)-1-oxopentan-2-yl)-2,6-dimethoxybenzamide], for which the pIC50 is > 6.30.

Regarding `COc1cccc(Cl)c1C(=O)N[C@@H](CCCNC(=N)CF)C(=O)NCc1ccc(Cl)cc1` [EX-4, (S)-2-Chloro-N-(1-((4-chlorobenzyl)amino)-5-(2-fluoroacetimidamido)-1-oxopentan-2-yl)-6-methoxybenzamide], the negative logarithm of the IC50 (pIC50) was 5.00 to 6.30.

Take `COc1ccccc1C(=O)N[C@@H](CCCNC(=N)CF)C(=O)NCc1ccc(Cl)cc1` [EX-5, (S)-N-(1-((4-Chlorobenzyl)amino)-5-(2-fluoroacetimidamido)-1-oxopentan-2-yl)-2-methoxybenzamide]: the pIC50 is 5.00 to 6.30.

As to `COc1ccc(Cl)cc1C(=O)N[C@@H](CCCNC(=N)CF)C(=O)NCc1ccc(Cl)cc1` [EX-6, (S)-5-Chloro-N-(1-((4-chlorobenzyl)amino)-5-(2-fluoroacetimidamido)-1-oxopentan-2-yl)-2-methoxybenzamide], the pIC50 is > 6.30.

Turning to `COc1ccc(-c2ccccc2)cc1C(=O)N[C@@H](CCCNC(=N)CF)C(=O)NCc1ccccc1` [EX-7, (S)-N-(1-(Benzylamino)-5-(2-fluoroacetimidamido)-1-oxopentan-2-yl)-4-methoxy-[1,1′-biphenyl]-3-carboxamide], the pIC50 was > 6.30.

`COc1ccc(-c2ccccc2)cc1C(=O)N[C@@H](CCCNC(=N)CF)C(=O)NCc1cccc(C)c1` [EX-8, (S)-N-(5-(2-Fluoroacetimidamido)-1-((3-methylbenzyl)amino)-1-oxopentan-2-yl)-4-methoxy-[1,1′-biphenyl]-3-carboxamide] showed a pIC50 of 5.00 to 6.30.

For `COc1ccc(-c2ccccc2)cc1C(=O)N[C@@H](CCCNC(=N)CF)C(=O)NCc1cccc(Cl)c1` [EX-9, (S)-N-(1-((3-Chlorobenzyl)amino)-5-(2-fluoroacetimidamido)-1-oxopentan-2-yl)-4-methoxy-[1,1′-biphenyl]-3-carboxamide], the pIC50 was 5.00 to 6.30.

With `COc1ccc(-c2ccccc2)cc1C(=O)N[C@@H](CCCNC(=N)CF)C(=O)NCc1ccccn1` [EX-10, (S)-N-(5-(2-Fluoroacetimidamido)-1-oxo-1-((pyridin-2-ylmethyl)amino)pentan-2-yl)-4-methoxy-[1,1′-biphenyl]-3-carboxamide], the pIC50 is > 6.30.

In the case of `COc1ccc(-c2cccc(Cl)c2)cc1C(=O)N[C@@H](CCCNC(=N)CF)C(=O)NCc1ccccc1` [EX-11, (S)-N-(1-(Benzylamino)-5-(2-fluoroacetimidamido)-1-oxopentan-2-yl)-3′-chloro-4-methoxy-[1,1′-biphenyl]-3-carboxamide], the pIC50 was 5.00 to 6.30.

Consider `COc1ccc(-c2cccc(C)c2)cc1C(=O)N[C@@H](CCCNC(=N)CF)C(=O)NCc1ccccc1` [EX-12, (S)-N-(1-(Benzylamino)-5-(2-fluoroacetimidamido)-1-oxopentan-2-yl)-4-methoxy-3′-methyl-[1,1′-biphenyl]-3-carboxamide], for which the pIC50 is > 6.30.

`COc1ccccc1CNC(=O)[C@H](CCCNC(=N)CF)NC(=O)c1cc(-c2ccccc2)ccc1OC` [EX-13, (S)-N-(5-(2-Fluoroacetimidamido)-1-((2-methoxybenzyl)amino)-1-oxopentan-2-yl)-4-methoxy-[1,1′-biphenyl]-3-carboxamide]: the negative logarithm of the IC50 (pIC50) was > 6.30.

Consider `COc1ccc(Cl)cc1C(=O)N[C@@H](CCCNC(=N)CF)C(=O)NCc1cccc(Cl)c1` [EX-14, (S)-5-Chloro-N-(1-((3-chlorobenzyl)amino)-5-(2-fluoroacetimidamido)-1-oxopentan-2-yl)-2-methoxybenzamide], for which the pIC50 is > 6.30.

For the compound `COc1ccc(Cl)cc1C(=O)N[C@@H](CCCNC(=N)CF)C(=O)NCc1ccccc1Cl` [EX-15, (S)-5-Chloro-N-(1-((2-chlorobenzyl)amino)-5-(2-fluoroacetimidamido)-1-oxopentan-2-yl)-2-methoxybenzamide], the pIC50 was > 6.30.

With `COc1ccc(Cl)cc1C(=O)N[C@@H](CCCNC(=N)CF)C(=O)NCc1ccc(C)cc1` [EX-16, (S)-5-Chloro-N-(5-(2-fluoroacetimidamido)-1-((4-methylbenzyl)amino)-1-oxopentan-2-yl)-2-methoxybenzamide], the pIC50 is > 6.30.

Consider `COc1ccc(CNC(=O)[C@H](CCCNC(=N)CF)NC(=O)c2cc(Cl)ccc2OC)cc1` [EX-17, (S)-5-Chloro-N-(5-(2-fluoroacetimidamido)-1-((4-methoxybenzyl)amino)-1-oxopentan-2-yl)-2-methoxybenzamide], for which the pIC50 was > 6.30.

For `COc1ccc(Cl)cc1C(=O)N[C@@H](CCCNC(=N)CF)C(=O)NCc1ccccn1` [EX-18, (S)-5-Chloro-N-(5-(2-fluoroacetimidamido)-1-oxo-1-((pyridin-2-ylmethyl)amino)pentan-2-yl)-2-methoxybenzamide], the negative logarithm of the IC50 (pIC50) was > 6.30.

For `COc1cc2c(OC)cccc2cc1C(=O)N[C@@H](CCCNC(=N)CF)C(=O)NCc1ccc(Cl)cc1` [EX-19, (S)-N-(1-((4-Chlorobenzyl)amino)-5-(2-fluoroacetimidamido)-1-oxopentan-2-yl)-3,5-dimethoxy-2-naphthamide], the pIC50 was > 6.30.

As for `COc1cc2c(OC)cccc2cc1C(=O)N[C@@H](CCCNC(=N)CF)C(=O)NCc1cccc(Cl)c1` [EX-20, (S)-N-(1-((3-Chlorobenzyl)amino)-5-(2-fluoroacetimidamido)-1-oxopentan-2-yl)-3,5-dimethoxy-2-naphthamide], the negative-log IC50 (pIC50) was > 6.30.

With `COc1cc2c(OC)cccc2cc1C(=O)N[C@@H](CCCNC(=N)CF)C(=O)NCc1cccc(F)c1` [EX-21, (S)-N-(5-(2-Fluoroacetimidamido)-1-((3-fluorobenzyl)amino)-1-oxopentan-2-yl)-3,5-dimethoxy-2-naphthamide], the pIC50 was > 6.30.

With `COc1cc2c(OC)cccc2cc1C(=O)N[C@@H](CCCNC(=N)CF)C(=O)NCc1ccc(F)cc1` [EX-22, (S)-N-(5-(2-Fluoroacetimidamido)-1-((4-fluorobenzyl)amino)-1-oxopentan-2-yl)-3,5-dimethoxy-2-naphthamide], the pIC50 is > 6.30.

Consider `COc1c(C(=O)N[C@@H](CCCNC(=N)CF)C(=O)NCc2ccccc2)ccc2cc(N(C)C)ccc12` [EX-23, (S)-N-(1-(Benzylamino)-5-(2-fluoroacetimidamido)-1-oxopentan-2-yl)-6-(dimethylamino)-1-methoxy-2-naphthamide], for which the pIC50 was > 6.30.

On to `COc1cc2c(OC)cccc2cc1C(=O)N[C@@H](CCCNC(=N)CF)C(=O)NCc1cccc(NC(=O)CCCNC(=O)CCCC[C@@H]2SC[C@@H]3NC(=O)N[C@@H]32)c1` [EX-24], for which the pIC50 was > 6.30.

The values are drawn from patent US12606526B2, “Substituted salicylamide compounds and use thereof” (HELIOS HUAMING BIOPHARMA CO., LTD., priority 2021, dated 2026).
